In patent publication US20100311718A1, “Treatment of Psychoses with Dibenzothiazepine Antipsychotic” (AstraZeneca AB, priority 2004, published 2010):
Structures can show the parent of a compound that is named as a salt. Where two headings read alike, the source gives them in different places. Marks after values point to notes of the source that are not given here.

Assays:
[1] = system: patients with bipolar depression; conditions: monotherapeutic agent; cited from earlier work
[2] = system: patients with bipolar depression; conditions: 8 week trial; difference not statistically significant; cited from earlier work
[3] = system: patients with bipolar depression; conditions: 7-week trial, patients who completed the study; cited from earlier work
[4] = system: patients with bipolar depression
Excerpt: (§1) The treatment was with quetiapine or placebo. There were 43% male and 57% female patients. The demographics also included 67% bipolar I and 33% bipolar II.

[5] = system: patients with bipolar depression; remark: listed apart in the source
Excerpt: Criteria for Emergent Mania (any one of the following): AE (Adverse Event) or SAE
(Serious Adverse Event) of Mania. Withdrawal for AE of mania. YMRS (Young Mania Rating Scale) ≧16 on 2 consecutive or final assessment.

[6] = system: patients with bipolar depression; remark: listed apart in the source
Excerpt: as §1

[7] = system: patients with bipolar depression; remark: listed apart in the source
Excerpt: as §1

[8] = system: patients with bipolar depression; conditions: for Improvement in mean HAM-A score: endpoint (Week 8), P<0.05 vs placebo
Excerpt: as §1

[9] = system: patients with bipolar depression; conditions: for Change in MADRS, Mean (SD): Bipolar I
Excerpt: as §1

[10] = system: patients with bipolar depression; remark: listed apart in the source
Excerpt: as §1

[11] = system: patients with bipolar depression; conditions: both doses, p<0.001
[12] = OC (completer) population, 300 mg/day
[13] = OC (completer) population, 600 mg/day
[14] = treatment of bipolar depression

Compound: O=C([O-])[O-].[Li+].[Li+] [Lithium carbonate]
- Patients with bipolar depression in whom monotherapy is effective [1]: approximately 50%

Compound: CCCC(CCC)C(=O)O [divalproex]
- Percentage of patients with a 50% reduction in HAM-D scores without mania [2]: numerical improvement over placebo

Compound: Nc1nnc(-c2cccc(Cl)c2Cl)c(N)n1 [lamotrigine]
- HAM-D and MADRS scores [3]: produced improvement in HAM-D and MADRS scores

Compound: OCCOCCN1CCN(C2=Nc3ccccc3Sc3ccccc32)CC1 [quetiapine, 2-[2-(4-dibenzo [b,f] 1,4]thiazepin-11-yl-1-piperazinyl)ethoxy]-ethanol fumarate]
- HAM-D Change ([4]; ITT population, 300 mg/day): −13.4
- HAM-D Change ([4]; ITT population, 600 mg/day): −13.9
- HAM-D Change [4, 12]: −15.0
- HAM-D Change [4, 13]: −17.0
- Treatment-emergent mania, number of patients ([5]; 300 mg): 6
- Treatment-emergent mania, percent of patients ([5]; 300 mg): 3.5%
- Treatment-emergent mania, number of patients ([5]; 600 mg): 4
- Treatment-emergent mania, percent of patients ([5]; 600 mg): 2.4%
- Association with treatment-emergent mania (switching) [5, 14]: not associated with treatment-emergent mania
- Adverse event trends ([6]; in vivo): No unexpected AE trends
- Changes in weight ([6]; in vivo): Small dose related changes in weight
- Tolerability [6, 14]: well-tolerated in the treatment of bipolar depression with a low incidence of EPS (extrapyramidal symptoms), prolactin, sexual dysfunction and weight gain
- Q-LES-Q change (Δ), Mean (SD) ([7]; Week 4, 300 mg): 8.6 (9.6)^a
- Q-LES-Q change (Δ), Mean (SD) ([7]; Week 4, 600 mg): 11.0 (10.7)*
- Q-LES-Q change (Δ), Mean (SD) ([7]; Week 8, 300 mg): 11.7 (10.4)^a
- Q-LES-Q change (Δ), Mean (SD) ([7]; Week 8, 600 mg): 16.3 (10.3)*
- Q-LES-Q change (Δ), Mean (SD) ([7]; Week 8 LOCF, 600 mg): 12.2 (11.6)*
- Improvement in mean HAM-A score ([8]; about 300 mg/day): −8.6
- Improvement in mean HAM-A score ([8]; about 600 mg/day): −8.7
- Efficacy in anxiety symptoms (HAM-A) ([8]; both doses, p<0.01): Efficacy in anxiety symptoms (HAM-A) in both doses from Day 8 on
- MADRS effect size ([9]; Bipolar I & II): 0.6
- Change in MADRS, Mean (SD) ([9]; ITT population, 300 mg/day): −17.1 (9.7)
- Change in MADRS, Mean (SD) ([9]; ITT population, 600 mg/day): −18.2 (11.0)
- MADRS Change ([9]; ITT population, 300 mg/day): −16.5
- MADRS Change ([9]; ITT population, 600 mg/day): −16.8
- MADRS Change [9, 12]: −18.6
- MADRS Change [9, 13]: −20.3
- Efficacy against depressive symptoms (MADRS and HAM-D) ([9]; both doses, p<0.001): Efficacy against depressive symptoms in both doses from Day 8 on
- Advantage over placebo, MADRS Responder analysis ([9]; in vivo): 20%
- Advantage over placebo, remission analysis ([9]; in vivo): 20%
- PSQI change (Δ), Mean (SD) ([10]; Week 4, 300 mg): −4.7 (4.2)*
- PSQI change (Δ), Mean (SD) ([10]; Week 4, 600 mg): −5.3 (4.9)*
- PSQI change (Δ), Mean (SD) ([10]; Week 8, 300 mg): −5.3 (4.3)*
- PSQI change (Δ), Mean (SD) ([10]; Week 8, 600 mg): −6.4 (4.3)*
- PSQI change (Δ), Mean (SD) ([10]; Week 8 LOCF, 300 mg): −5.1 (4.3)*
- Sleep component: Sleep disturbance, Mean (SD) ([10]; Week 8 LOCF, 300 mg): 1.1 (0.6)
- Sleep component: Sleep duration, Mean (SD) ([10]; Week 8 LOCF, 300 mg): 0.7 (0.8)
- Sleep component: Sleep dysfunction, Mean (SD) ([10]; Week 8 LOCF, 300 mg): 1.3 (0.9)
- Sleep component: Sleep latency, Mean (SD) ([10]; Week 8 LOCF, 300 mg): 1.3 (1.0)
- Sleep component: Sleep medication, Mean (SD) ([10]; Week 8 LOCF, 300 mg): 0.4 (0.9)
- Sleep component: Sleep quality, Mean (SD) ([10]; Week 8 LOCF, 300 mg): 1.0 (0.8)
- PSQI change (Δ), Mean (SD) ([10]; Week 8 LOCF, 600 mg): −5.5 (4.8)*
- Sleep component: Sleep disturbance, Mean (SD) ([10]; Week 8 LOCF, 600 mg): 1.2 (0.7)
- Sleep component: Sleep duration, Mean (SD) ([10]; Week 8 LOCF, 600 mg): 0.5 (0.8)
- Sleep component: Sleep dysfunction, Mean (SD) ([10]; Week 8 LOCF, 600 mg): 1.4 (0.9)
- Sleep component: Sleep latency, Mean (SD) ([10]; Week 8 LOCF, 600 mg): 1.3 (1.1)
- Sleep component: Sleep medication, Mean (SD) ([10]; Week 8 LOCF, 600 mg): 0.4 (0.9)
- Sleep component: Sleep quality, Mean (SD) ([10]; Week 8 LOCF, 600 mg): 0.8 (0.8)
- Clinical Improvement (CGI) [11]: Clinical Improvement (CGI) in both doses from Day 8 on
